{
  "source": "patent US20050118228A1",
  "about": "“Compositions and methods for augmentation or repair of intervertebral discs” (priority 2003, published 2005)",
  "test_system": "Adult human keratinocytes",
  "test": "Telomerase expression (TRAP assay kit) in treated keratinocytes",
  "format": "cell-based",
  "settings": "keratinocytes exposed to both agents in sequence: 10-25 μM 5-aza-2′-deoxycytidine for 5 days and 100-250 ng/ml trichostatin for 1 day; versus cells not exposed",
  "method": "Adult human keratinocytes are obtained form Clonetics (San Diego, Calif.) and grown in Keratinocyte Growth Media in 5-10% CO2 at 37 degree C. according to the instructions “Keratinocyte System Instructions” BioWhittaker Catalogue number AA-1000. When the adult keratinocytes are about 40-80% confluent, 10-25 μM 5-aza-2′-deoxycytidine (Sigma, St Louis, Mo.) is added to the culture. After 4 days of incubation with 5-aza-2′-deoxycytidine, 100-250 ng/ml trichostatin (Sigma, St Louis, Mo.) is added to the culture. The culture is incubated for an additional day and sampled for telomerase activity.\nKeratinocytes exposed to 10-25 μM 5-aza-2′-deoxycytidine for 5 days and 100-250 ng/ml trichostatin for 1 day and cells not exposed to these agents are assayed for the expression of telomerase (using a commercially available TRAP assay kit). These cells are assayed along side positive controls (HeLa and NH-12 cells) and negative controls (human foreskin fibroblasts and heated HN-12 cell extracts). Telomerase activity is measured by phosphoimaging telomeric products resolved on 12.5% […]. Telometric ladders indicative of telomerase activity, consistent with the presence of stem cells is observed in the positive controls and in the keratinocytes exposed to 10-25 μM 5-aza-2′-deoxycytidine for 5 days and 100-250 ng/ml trichostatin for 1 day.",
  "data": [
    {"molecule": "Nc1ncn([C@H]2C[C@H](O)[C@@H](CO)O2)c(=O)n1", "note": "[5-aza-2′-deoxycytidine]", "values": [
      {"measurement": "Telomerase activity (telomeric ladders)", "result": "increased telomerase activity"}
    ]},
    {"molecule": "CC(/C=C/C(=O)NO)=C\\[C@@H](C)C(=O)c1ccc(N(C)C)cc1", "note": "[trichostatin]", "values": [
      {"measurement": "Telomerase activity (telomeric ladders)", "result": "increased telomerase activity"}
    ]}
  ]
}
